The text below walks through data of patent US20140018416A1, “THERAPEUTIC AGENT FOR CORNEAL SENSORY NERVE DAMAGE CONTAINING SEMAPHORIN INHIBITOR AS ACTIVE INGREDIENT” (DAINIPPON SUMITOMO PHARMA CO., LTD, priority 2011, published 2014).

Data set [1] can be described thus: Change over time in stability in PBS (phosphate buffer). It counts as physicochemical. As to conditions: 100 μg/ml in PBS, 37° C. As to the method: Vinaxanthone (SPF-3059-5) and SPF-3059-1 were each dissolved in PBS (Dulbecco's PBS(-)) to a concentration of 100 μg/ml. The obtained solutions were preserved at 37° C., and the amount of the agent remaining in the solution was quantified by HPLC in individual time points from initiation of the preservation until 4 weeks after initiation of the preservation, so that a change over time in the remaining percentages was examined. The same HPLC conditions as those of Example 10 were applied.

For data set [2], the target named is T1, mouse semaphorin 3A (Sema3A) (Mus musculus, UniProt O08665).
T1 sequence (O08665 21-772): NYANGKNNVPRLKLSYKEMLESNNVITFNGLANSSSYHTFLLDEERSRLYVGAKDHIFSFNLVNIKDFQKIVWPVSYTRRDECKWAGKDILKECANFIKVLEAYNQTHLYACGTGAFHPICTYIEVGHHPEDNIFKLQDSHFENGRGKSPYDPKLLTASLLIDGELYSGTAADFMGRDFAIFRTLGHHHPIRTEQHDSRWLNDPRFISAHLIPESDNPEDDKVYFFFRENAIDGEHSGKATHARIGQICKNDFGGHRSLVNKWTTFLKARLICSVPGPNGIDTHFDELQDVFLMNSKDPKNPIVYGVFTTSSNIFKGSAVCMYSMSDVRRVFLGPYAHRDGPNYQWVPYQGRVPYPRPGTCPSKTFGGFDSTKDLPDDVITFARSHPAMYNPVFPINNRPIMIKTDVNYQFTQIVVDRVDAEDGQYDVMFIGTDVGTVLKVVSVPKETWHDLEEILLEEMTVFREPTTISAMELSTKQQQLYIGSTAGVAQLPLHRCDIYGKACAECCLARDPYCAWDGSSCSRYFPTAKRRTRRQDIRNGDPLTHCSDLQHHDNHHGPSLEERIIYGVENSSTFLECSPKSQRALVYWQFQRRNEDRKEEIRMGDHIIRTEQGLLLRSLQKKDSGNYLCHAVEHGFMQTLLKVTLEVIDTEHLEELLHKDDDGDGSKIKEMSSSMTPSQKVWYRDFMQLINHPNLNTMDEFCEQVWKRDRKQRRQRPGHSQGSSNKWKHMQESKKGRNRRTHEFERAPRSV
Briefly: Inhibitory activity on collapse activity of Sema3A (growth cone retraction, chicken embryo dorsal root ganglion). It counts as cell-based. As to the method: A polylysine-coated 96-well plate (Sumitomo Bakelite Co., Ltd.) was further coated with laminin (20 μg/ml laminin, room temperature, 1 hour). Then, 100 μl of a medium (F12 medium containing 10% fetal bovine serum, 20 ng/ml NGF, 100 units/ml penicillin, and 100 μg/ml streptomycin) was added to each well. Thereafter, a dorsal root ganglion excised from a 7-day-old chicken embryo was inoculated into the resulting well, and the obtained mixture was then cultured under conditions consisting of 16 to 20 hours, 5% CO2 and 37° C. Thereafter, the compounds described in Example 3 above were each added in different concentrations to the resulting culture, and the obtained mixture was then cultured for 1 hour. Thereafter, 2 units/ml mouse semaphorin 3A (Sema3A) was added to the culture, and the obtained mixture was further cultured for 1 hour. One hour after initiation of the culture, glutaraldehyde was added to the culture, such that it promptly could reach a final concentration of 1%. Then, the obtained mixture was then left at a room temperature for 15 minutes to fix a tissue section. Thereafter, the percentage of the retracted growth cone was measured under a microscope. A well, to which no Sema3A had been added, was used as a control. The percentage of growth cone retraction in a negative control group (to which neither the compound nor Sema3A was added) was defined as (A)%; the percentage of growth cone retraction in a positive control group (to which the compound had not been added but Sema3A was added) was defined as (B)%; and the percentage of growth cone retraction in a test group (to which both the compound and Sema3A were added) was defined as (C)%. The concentration of each compound that held the formula C=(A+B)/2 was defined as an IC50 value.

Data set [3] can be described thus: Solubility (physicochemical properties of isolated compounds). Conditions: water, hexane, methanol, DMSO.
Data set [4] has as its system corneal sensory nerve in corneal graft. Briefly: Mouse keratoplasty model: regeneration of nerve fibers in corneal graft, corneal sensitivity, corneal vascularization. As to conditions: vs control group. It counts as in vivo. The text has this:
In this experiment, there were used genetically modified mice (P0-Cre/Floxed-EGFP mouse), in which corneal parenchymal cells, corneal endothelial cells, and nerves expressed a type of fluorescent protein, Green Fluorescent Protein (GFP), in the cornea. Using these mice, corneal sensory nerve fibers traveling in the cornea can easily be observed by removing a layer of corneal endothelial cells.
The cornea derived from a syngeneic wild-type mouse was transplanted into each of the above-mentioned mice. Thereafter, 50 ul of vinaxanthone (which had been dissolved in Rinderon (1 mg/ml betamethasone sodium phosphate injection solution) to a concentration of 0.1 mg/mL) was administered to the mice via subconjunctival injection immediately after completion of the operation and then, every two days in a total of 11 times. Only a solvent containing no drugs was administered in the same amount as described above to a control group. The removal of the suture was conducted one week after completion of the operation. Three weeks after completion of the operation, corneal sensitivity was evaluated, the mice were then subjected to euthanasia, and eyeballs were then excised. A comparison was made regarding the regeneration of nerve fibers in the corneal graft. Corneal sensitivity was evaluated by measuring corneal sensitivity in the center of the corneal graft every week after completion of the operation, using a Cochet-Bonnet corneal esthesiometer. […]
Thereafter, a total of the lengths thereof were measured, and a comparison was then made between the vinaxanthone administration group and the control group.

Data set [5] in a line: Retention of vinaxanthone in corneal tissues after eye drops administration. It counts as in vivo. As to conditions: rabbit. Here is the method: Rabbits (Kbs: JW, healthy, male, body weight: 2.00 to 2.49 kg) were each administered with 50 μL of a PBS solution (0.12 M phosphate buffer (pH 7.4)) of vinaxanthone (0.5, 1.5 and 5.0 mg/mL) via eye drops administration onto the cornea of the right eye, and their eyes were then closed for 30 seconds. Thereafter, 0.5, 2, and 6 hours after completion of the administration, the rabbits were subjected to euthanasia, and the excised eyeballs were then washed with a normal saline. Thereafter, the cornea was collected from each eyeball. The cornea was homogenized, and vinaxanthone was then extracted therefrom. A change over time in the content and concentration of vinaxanthone in the corneal tissues was examined using HPLC.

Where two headings read alike, the source gives them in different places.

For orientation: IC50 means the concentration that inhibits the measured activity by half.

In the case of `CC(=O)c1c(C)c(C(=O)C2COc3cc(O)c(O)c(C(=O)O)c3C2=O)cc2c(=O)c3c(C(=O)O)c(O)c(O)cc3oc12` (centres unmarked) [SPF-3059-1, reference compound], the “Time until decomposed in an almost total amount in PBS” value in data set [1] is “approximately 1 week”.

On to `CC(=O)c1cc2c(=O)c3cc(O)c(O)cc3oc2c(C(C)=O)c1-c1coc2cc(O)c(O)c(C(=O)O)c2c1=O` [SPF-3059-2], for which, in data set [2] (2 units/ml mouse Sema3A, 7-day-old chicken embryo dorsal root ganglion, read-out: IC50 (inhibition of Sema3A-induced growth cone retraction)), the half-inhibitory concentration (IC50) is less than 188 nM.

In the case of `CC(=O)c1cc2c(=O)c3c(C(=O)O)cc(O)cc3oc2c(C(C)=O)c1-c1coc2cc(O)c(O)c(C(=O)O)c2c1=O` [SPF-3059-4], in data set [3], the Solubility result was “Insoluble in water and hexane, soluble in methanol and DMSO”.

On to `CC(=O)c1cc2c(=O)c3c(C(=O)O)c(O)c(O)cc3oc2c(C(C)=O)c1-c1coc2cc(O)c(O)c(C(=O)O)c2c1=O` [SPF-3059-5, vinaxanthone], for which the “Regeneration of nerve fibers in the corneal graft (total length of regenerated fibers)” value in data set [4] (50 ul of 0.1 mg/mL subconjunctival injection, every two days, 11 times, three weeks after operation, p<0.01) is recorded as “promoted”. Moreover, the “Corneal sensitivity in the center of the corneal graft (Cochet-Bonnet corneal esthesiometer, blink reflection)” value in data set [4] (three weeks after completion of the operation, p<0.01) is recorded as “improved”. Also, the “Vascularization into the corneal graft (total length of CD31-positive newly formed blood vessels)” value in data set [4] (three weeks after operation, no significant difference) is recorded as “not promoted”. The concentration at 6 h in data set [5] (male, Kbs: JW, cornea, topical, 5 mg/mL (50 μL eye drop), 50 μL eye drops of 5.0 mg/mL PBS solution, 6 hours after administration, read-out: Concentration of vinaxanthone retained in the cornea) is more than 75 ng/mL. Moreover, the “Time for which the concentration in the cornea considered necessary for the expression of drug effects was retained” value in data set [5] (eye drop of 0.5 mg/mL solution) stood at 0.5 h. Besides, the “Transfer into the corneal tissues” value in data set [5] (eye drops 0.5, 1.5 and 5.0 mg/mL) is “transferred into the corneal tissues in an applied concentration/dose dependent manner”. The 50% inhibitory concentration (IC50) in data set [2] (as quoted in Example 2, converted from ng/mL, read-out: IC50 value obtained by the in vitro experiment (inhibitory activity on the collapse activity of Sema3A in Example 4) (converted)) is 130 nM; in data set [2] (as quoted in Example 2, read-out: IC50 value obtained by the in vitro experiment (inhibitory activity on the collapse activity of Sema3A in Example 4) (converted)), 130 nM. In addition, the “Time for which the compound was stable in PBS” value in data set [1] is given as not below 4 weeks. Besides, the “Remaining percentage in PBS” value in data set [1] (until 4 weeks after initiation of the preservation, HPLC) is recorded as not below 96%.

Regarding `CC(=O)c1cc2c(=O)c3c(C(=O)O)c(O)c(O)cc3oc2c(C(C)=O)c1-c1coc2cc(O)cc(C(=O)O)c2c1=O` [SPF-3059-12], the Solubility result in data set [3] is “Insoluble in water and hexane, soluble in methanol and DMSO”.

For `CC(=O)c1cc2c(=O)c3c(C(=O)O)c(O)c(O)cc3oc2c(C(C)=O)c1-c1coc2cc(O)c(O)cc2c1=O` [SPF-3059-24], the Solubility result in data set [3] was “Insoluble in water and hexane, soluble in methanol and DMSO”.

As to `CC(=O)c1cc2c(=O)c3c(C(=O)O)cc(O)cc3oc2c(C(C)=O)c1-c1coc2cc(O)c(O)cc2c1=O` [SPF-3059-25], the Solubility entry in data set [3] is “Insoluble in water and hexane, soluble in methanol and DMSO”.

On to `CC(=O)c1cc2c(=O)c3cc(O)c(O)cc3oc2c(C(C)=O)c1-c1coc2cc(O)c(O)cc2c1=O` [SPF-3059-26], for which the Solubility entry in data set [3] was “Insoluble in water and hexane, soluble in methanol and DMSO”.
